Assays:
[1] = Comparative pharmacokinetic screening study of guanfacine prodrugs in the monkey; settings: oral gavage
Procedure: Blood samples were taken on 4 sampling occasions at various times up to 6 hours after administration and submitted to analysis for the parent drug and prodrug using a qualified LC-MS-MS assay.

[2] = Prodrug stability in simulated gastric fluid (USP); settings: 37° C.
Procedure: (§1) The remaining concentrations of the prodrugs were then assayed by HPLC.

[3] = Prodrug stability in simulated intestinal fluid (USP); settings: 37° C.
Procedure: as §1

| SMILES | prodrug levels in plasma (in words) [1] | % prodrug remaining following incubation for: 1 h in simulated gastric fluid pH 1.1 [2] | % prodrug remaining following incubation for: 2 h in simulated intestinal fluid pH 6.8 [3] |
| --- | --- | --- | --- |
| CN(CC(=O)O)C(=O)NC(=N)NC(=O)Cc1c(Cl)cccc1Cl [Compound 9, Guanfacine Sarcosine Urea] | high prodrug levels | – | – |
| CC(C)[C@@H](N)C(=O)NCCC(=O)NC(=N)NC(=O)Cc1c(Cl)cccc1Cl [Compound 11, Guanfacine β-Alanine-(R)-Valine Amide] | detectable prodrug levels in plasma | 79% | – |
| CC(C)[C@H](N)C(=O)N[C@@H](COC(=O)NC(=N)NC(=O)Cc1c(Cl)cccc1Cl)C(=O)O [Compound 17, (S)-Valine-(S)-Serine(Guanfacine) Carbamate] | total absence of prodrug in the plasma | 93% | 78% |
| O=C(O)CC[C@@H]1N=C(NC(=O)Cc2c(Cl)cccc2Cl)NC1=O [Compound 37, Guanfacine-(S)-Glutamic Cyclic adduct] | high prodrug levels | 58% | 110% |
| C[C@@H](N)C(=O)N[C@@H](CCC(=O)NC(=N)NC(=O)Cc1c(Cl)cccc1Cl)C(=O)O [Compound 41, (R)-Alanine-(S)-γ-Glutamate(Guanfacine) Amide] | detectable prodrug levels in plasma | 70% | 83% |
| N=C(NC(=O)CC[C@H](NC(=O)[C@H](N)CCC(N)=O)C(=O)O)NC(=O)Cc1c(Cl)cccc1Cl [Compound 46, (R)-Glutamine-(S)-γ-Glutamate(Guanfacine) Amide] | – | 61% | 81% |
| N=C(NC(=O)CC[C@H](NC(=O)[C@H](N)CO)C(=O)O)NC(=O)Cc1c(Cl)cccc1Cl [Compound 47, (R)-Serine-(S)-γ-Glutamate(Guanfacine) Amide] | – | 72% | 89% |
| CCC(C)[C@@H](N)C(=O)NCCCC(=O)NC(=N)NC(=O)Cc1c(Cl)cccc1Cl (stereo partly drawn) [Compound 50, Guanfacine (GABA-(R)-Isoleucine) Amide] | – | 85% | 81% |
| N=C(NC(=O)Cc1c(Cl)cccc1Cl)NC(=O)c1ccc(N)cc1 [Compound 52, Guanfacine PABA Amide] | – | 84% | 97% |
| CC(C)[C@@H](N)C(=O)N[C@@H](C(=O)NC(=N)NC(=O)Cc1c(Cl)cccc1Cl)C(C)C [Compound 54, Guanfacine (R)-Valine-(R)-Valine Amide] | – | 73% | 66% |
| CC(C)[C@@H](NC(=O)c1ccc(N)cc1)C(=O)NC(=N)NC(=O)Cc1c(Cl)cccc1Cl [Compound 55, Guanfacine (R)-Valine-PABA Amide] | – | 65% | 91% |
| N=C(NC(=O)Cc1c(Cl)cccc1Cl)NC(=O)OCCNC(=O)CC[C@H](N)C(=O)O [Compound 58, Guanfacine (ethanolamine-(S)-γ-Glutamate) Carbamate] | – | 96% | 99% |
| CC[C@H](C)[C@H](N)C(=O)NCCOC(=O)NC(=N)NC(=O)Cc1c(Cl)cccc1Cl [Compound 59, Guanfacine (ethanolamine-(S)-Isoleucine) Carbamate] | – | 92% | 100% |
| N=C(NC(=O)CC[C@H](NC(=O)c1ccc(C(=O)O)cc1)C(=O)O)NC(=O)Cc1c(Cl)cccc1Cl [Compound 60, Terephthalic acid-(S)-γ-Glutamate(Guanfacine) Amide] | – | 81% | 97% |
| N=C(NC(=O)Cc1c(Cl)cccc1Cl)NC(=O)OC[C@H](NC(=O)CCN)C(=O)O [Compound 64, β-Alanine-(S)-Serine (Guanfacine) Carbamate] | – | 88% | 93% |
| N=C(NC(=O)Cc1c(Cl)cccc1Cl)NC(=O)OCC[C@H](N)C(=O)O [Compound 65, (S)-Homoserine Guanfacine Carbamate] | – | 90% | 99% |
| N=C(NC(=O)Cc1c(Cl)cccc1Cl)NC(=O)OCC[C@H](NC(=O)CCN)C(=O)O [Compound 67, β-Alanine-(S)-Homoserine (Guanfacine) Carbamate] | – | 99% | 97% |
| CC(C)(COC(=O)NC(=N)NC(=O)Cc1c(Cl)cccc1Cl)[C@@H](O)C(=O)NCCC(=O)O [Compound 68, Guanfacine Pantothenic acid Carbamate] | – | 86% | 75% |
| CC(C)(CO)[C@@H](O)C(=O)NCCCOC(=O)NC(=N)NC(=O)Cc1c(Cl)cccc1Cl [Compound 69, Guanfacine Panthenol Carbamate] | – | 85% | 96% |
| N=C(NC(=O)CC[C@H](NC(=O)c1ccc(N)cc1)C(=O)O)NC(=O)Cc1c(Cl)cccc1Cl [Compound 70, Guanfacine PABA-(S)-Glutamate (Guanfacine) Amide] | – | 64% | 93% |
| CNCC(=O)NCCOC(=O)NC(=N)NC(=O)Cc1c(Cl)cccc1Cl [Compound 71, Guanfacine ethanolamine-Sarcosine Carbamate] | – | 91% | 89% |
